In article PMC11987180 (Biology Direct, 2025):

What was measured:
[1] = biological target: T1, human indolethylamine N-methyltransferase (hINMT) (Homo sapiens, UniProt O95050); assay: quinoline-based continuous fluorometric methylation assay; type: biochemical
[2] = biological target: T1, human indolethylamine N-methyltransferase (hINMT); assay: thermal shift assay; type: binding

T1 sequence (O95050 whole entry): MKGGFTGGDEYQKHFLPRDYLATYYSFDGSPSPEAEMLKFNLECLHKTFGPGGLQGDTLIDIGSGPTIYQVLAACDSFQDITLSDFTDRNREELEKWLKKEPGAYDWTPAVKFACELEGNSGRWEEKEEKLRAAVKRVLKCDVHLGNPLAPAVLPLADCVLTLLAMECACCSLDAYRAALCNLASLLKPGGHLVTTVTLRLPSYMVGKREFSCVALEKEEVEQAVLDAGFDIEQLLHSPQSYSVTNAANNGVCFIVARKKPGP

| Compound | IC50 [1] [µM] | Kd [2] [µM] |
| --- | --- | --- |
| CNS(=O)(=O)CCc1ccc2[nH]cc(C3CCN(C)CC3)c2c1 [Naratriptan] | 188.5 ± 1.8 | – |
| C[S+](CC[C@H](N)C(=O)[O-])C[C@H]1O[C@@H](n2cnc3c(N)ncnc32)[C@H](O)[C@@H]1O (some centres unmarked) [SAM] | – | 55.6 ± 2.6 |
